Data as given in US20240216392A1, “METHODS OF TREAMENT” (Arena Pharmaceuticals, Inc., priority 2022, published 2024).
Read-outs that look alike come from different tables or passages of the source.

Columns and labels:
plasma protein = assay: clinical; conditions: human, oral
clinical = conditions: both, human, oral; for Tmax: CSF, CSF Tmax
serum prolactin = serum prolactin pharmacodynamics, Phase 1 study; assay type: in vivo, human
Method: The PD parameters listed in Table 13 were derived for serum prolactin based on actual times and were calculated using noncompartmental analysis (NCA) methods, as data permitted.

[1] = for CSF AUCtau, geometric mean (geometric CV %) / CSF Cavg, geometric mean (geometric CV %) / CSF Cmax, geometric mean (geometric CV %) / CSF Ctrough, geometric mean (geometric CV %): Day 11

C[C@H]1CN2CCNCc3ccc(C(=O)NCC(F)F)c1c32 [Compound 1, (R)—N-(2,2-difluoroethyl)-7-methyl-1,2,3,4,6,7-hexahydro-[1,4]diazepino[6,7,1-hi]indole-8-carboxamide]
fraction unbound at 11 day (plasma protein; 6 mg, Day 11, Cohort 1 (6 mg TID)): 0.969
fraction unbound at 11 day (plasma protein; 12 mg, Day 11, Cohort 2 (12 mg TID)): 0.968
fraction unbound at 11 day (plasma protein; 12 mg, Day 11, Cohort 3 (12 mg BID)): 0.93
fraction unbound at 11 day (plasma protein; 15 mg, Day 11, Cohort 4A (15 mg BID)): 0.913
fraction unbound at 11 day (plasma protein; 18 mg, Day 11, Cohort 4B (18 mg BID)): 0.926
Kp (clinical; CSF / free (unbound) plasma, CSF/P Cmax ratio, across all cohorts): 0.663 to 0.764
Kp (clinical; CSF / free (unbound) plasma, CSF/P Ctrough ratio, across all cohorts): 1.26 to 1.92
Kp (clinical; CSF / free drug in plasma, 6 mg, CSF/P Ctrough, mean (SD), CSF to free drug plasma ratio, Day 11, Cohort 1 (6 mg TID)): 1.26
Kp (clinical; CSF / free drug in plasma, 12 mg, CSF/P Ctrough, mean (SD), CSF to free drug plasma ratio, Day 11, Cohort 2 (12 mg TID)): 1.31
Kp (clinical; CSF / free drug in plasma, 12 mg, CSF/P Ctrough, mean (SD), CSF to free drug plasma ratio, Day 11, Cohort 3 (12 mg BID)): 1.92
Kp (clinical; CSF / free drug in plasma, 15 mg, CSF/P Ctrough, mean (SD), CSF to free drug plasma ratio, Day 11, Cohort 4A (15 mg BID)): 1.48
Kp (clinical; CSF / free drug in plasma, 18 mg, CSF/P Ctrough, mean (SD), CSF to free drug plasma ratio, Day 11, Cohort 4B (18 mg BID)): 1.69
Tmax (clinical; 6 mg, median (minimum, maximum), Day 11, Cohort 1 (6 mg TID)): 2.52 h
Tmax (clinical; 12 mg, median (minimum, maximum), Day 11, Cohort 2 (12 mg TID)): 3.04 h
Tmax (clinical; 12 mg, median (minimum, maximum), Day 11, Cohort 3 (12 mg BID)): 2.53 h
Tmax (clinical; 15 mg, median (minimum, maximum), Day 11, Cohort 4A (15 mg BID)): 3.02 h
Tmax (clinical; 18 mg, median (minimum, maximum), Day 11, Cohort 4B (18 mg BID)): 3.06 h
Tmax (clinical; Day 11, across cohorts): 2.52 to 3.06 h
Serum prolactin AUEC, Change From Baseline, geometric mean (serum prolactin; Day 1, Cohort 1 (3 mg doses)): 13.2 ng·h/mL
Serum prolactin AUEC, Raw, geometric mean (serum prolactin; Day 1, Cohort 1 (3 mg doses)): 95.0 ng·h/mL
Serum prolactin Emax, Change From Baseline, geometric mean (serum prolactin; Day 1, Cohort 1 (3 mg doses)): 6.6 ng/mL
Serum prolactin Emax, Raw, geometric mean (serum prolactin; Day 1, Cohort 1 (3 mg doses)): 17.8 ng/mL
Serum prolactin Tmax, Raw, median (serum prolactin; Day 1, Cohort 1 (3 mg doses)): 7.84 h
Serum prolactin AUEC, Change From Baseline, geometric mean (serum prolactin; Day 1, Cohort 2 (6 mg doses)): 16.3 ng·h/mL
Serum prolactin AUEC, Raw, geometric mean (serum prolactin; Day 1, Cohort 2 (6 mg doses)): 82.5 ng·h/mL
Serum prolactin Emax, Change From Baseline, geometric mean (serum prolactin; Day 1, Cohort 2 (6 mg doses)): 4.4 ng/mL
Serum prolactin Emax, Raw, geometric mean (serum prolactin; Day 1, Cohort 2 (6 mg doses)): 13.9 ng/mL
Serum prolactin Tmax, Raw, median (serum prolactin; Day 1, Cohort 2 (6 mg doses)): 2.01 h
Serum prolactin AUEC, Change From Baseline, geometric mean (serum prolactin; Day 1, Cohort 3 (6 mg doses)): 15.0 ng·h/mL
Serum prolactin AUEC, Raw, geometric mean (serum prolactin; Day 1, Cohort 3 (6 mg doses)): 93.6 ng·h/mL
Serum prolactin Emax, Change From Baseline, geometric mean (serum prolactin; Day 1, Cohort 3 (6 mg doses)): 5.8 ng/mL
Serum prolactin Emax, Raw, geometric mean (serum prolactin; Day 1, Cohort 3 (6 mg doses)): 16.4 ng/mL
Serum prolactin Tmax, Raw, median (serum prolactin; Day 1, Cohort 3 (6 mg doses)): 1.56 h
Serum prolactin AUEC, Change From Baseline, geometric mean (serum prolactin; Day 1, Cohort 4A (6 mg doses)): 12.7 ng·h/mL
Serum prolactin AUEC, Raw, geometric mean (serum prolactin; Day 1, Cohort 4A (6 mg doses)): 99.6 ng·h/mL
Serum prolactin Emax, Change From Baseline, geometric mean (serum prolactin; Day 1, Cohort 4A (6 mg doses)): 9.1 ng/mL
Serum prolactin Emax, Raw, geometric mean (serum prolactin; Day 1, Cohort 4A (6 mg doses)): 21.5 ng/mL
Serum prolactin Tmax, Raw, median (serum prolactin; Day 1, Cohort 4A (6 mg doses)): 2.01 h
Serum prolactin AUEC, Raw, geometric mean (serum prolactin; Day 1, Cohort 4B (6 mg doses)): 80.4 ng·h/mL
Serum prolactin Emax, Change From Baseline, geometric mean (serum prolactin; Day 1, Cohort 4B (6 mg doses)): 4.2 ng/mL
Serum prolactin Emax, Raw, geometric mean (serum prolactin; Day 1, Cohort 4B (6 mg doses)): 15.6 ng/mL
Serum prolactin Tmax, Raw, median (serum prolactin; Day 1, Cohort 4B (6 mg doses)): 0.48 h
Serum prolactin AUEC, Change From Baseline, geometric mean (serum prolactin; Day 10, Cohort 1 (6 mg TID)): 20.7 ng·h/mL
Serum prolactin AUEC, Raw, geometric mean (serum prolactin; Day 10, Cohort 1 (6 mg TID)): 92.4 ng·h/mL
Serum prolactin Emax, Change From Baseline, geometric mean (serum prolactin; Day 10, Cohort 1 (6 mg TID)): 6.0 ng/mL
Serum prolactin Emax, Raw, geometric mean (serum prolactin; Day 10, Cohort 1 (6 mg TID)): 16.2 ng/mL
Serum prolactin Tmax, Raw, median (serum prolactin; Day 10, Cohort 1 (6 mg TID)): 3.00 h
Serum prolactin AUEC, Change From Baseline, geometric mean (serum prolactin; Day 10, Cohort 2 (12 mg TID)): 14.4 ng·h/mL
Serum prolactin AUEC, Raw, geometric mean (serum prolactin; Day 10, Cohort 2 (12 mg TID)): 92.0 ng·h/mL
Serum prolactin Emax, Change From Baseline, geometric mean (serum prolactin; Day 10, Cohort 2 (12 mg TID)): 5.8 ng/mL
Serum prolactin Emax, Raw, geometric mean (serum prolactin; Day 10, Cohort 2 (12 mg TID)): 16.0 ng/mL
Serum prolactin Tmax, Raw, median (serum prolactin; Day 10, Cohort 2 (12 mg TID)): 7.84 h
Serum prolactin AUEC, Change From Baseline, geometric mean (serum prolactin; Day 10, Cohort 3 (12 mg BID)): 13.5 ng·h/mL
Serum prolactin AUEC, Raw, geometric mean (serum prolactin; Day 10, Cohort 3 (12 mg BID)): 99.9 ng·h/mL
Serum prolactin Emax, Change From Baseline, geometric mean (serum prolactin; Day 10, Cohort 3 (12 mg BID)): 7.2 ng/mL
Serum prolactin Emax, Raw, geometric mean (serum prolactin; Day 10, Cohort 3 (12 mg BID)): 18.2 ng/mL
Serum prolactin Tmax, Raw, median (serum prolactin; Day 10, Cohort 3 (12 mg BID)): 1.01 h
Serum prolactin AUEC, Raw, geometric mean (serum prolactin; Day 10, Cohort 4A (15 mg BID)): 84.3 ng·h/mL
Serum prolactin Emax, Change From Baseline, geometric mean (serum prolactin; Day 10, Cohort 4A (15 mg BID)): 4.7 ng/mL
Serum prolactin Emax, Raw, geometric mean (serum prolactin; Day 10, Cohort 4A (15 mg BID)): 14.7 ng/mL
Serum prolactin Tmax, Raw, median (serum prolactin; Day 10, Cohort 4A (15 mg BID)): 2.00 h
Serum prolactin AUEC, Change From Baseline, geometric mean (serum prolactin; Day 10, Cohort 4B (18 mg BID)): 17.8 ng·h/mL
Serum prolactin AUEC, Raw, geometric mean (serum prolactin; Day 10, Cohort 4B (18 mg BID)): 99.4 ng·h/mL
Serum prolactin Emax, Change From Baseline, geometric mean (serum prolactin; Day 10, Cohort 4B (18 mg BID)): 8.1 ng/mL
Serum prolactin Emax, Raw, geometric mean (serum prolactin; Day 10, Cohort 4B (18 mg BID)): 16.7 ng/mL
Serum prolactin Tmax, Raw, median (serum prolactin; Day 10, Cohort 4B (18 mg BID)): 1.10 h
CSF concentrations exceeding the relevant Ki for 5-HT2C agonism ([1]; Cohort 2 (12 mg TID) and Cohort 4B (18 mg BID)): ~2 fold
CSF AUCtau, geometric mean (geometric CV %) ([1]; Cohort 1 (6 mg TID)): 72.07 (25.7) h*ng/mL
CSF Cavg, geometric mean (geometric CV %) ([1]; Cohort 1 (6 mg TID)): 9.261 (2.2660) ng/mL
CSF Cmax, geometric mean (geometric CV %) ([1]; Cohort 1 (6 mg TID)): 11.88 (28.1) ng/mL
CSF Ctrough, geometric mean (geometric CV %) ([1]; Cohort 1 (6 mg TID)): 6.524 (1.8619) ng/mL
CSF AUCtau, geometric mean (geometric CV %) ([1]; Cohort 2 (12 mg TID)): 167.4 (60.3) h*ng/mL
CSF Cavg, geometric mean (geometric CV %) ([1]; Cohort 2 (12 mg TID)): 24.61 (18.535) ng/mL
CSF Cmax, geometric mean (geometric CV %) ([1]; Cohort 2 (12 mg TID)): 26.21 (57.4) ng/mL
CSF Ctrough, geometric mean (geometric CV %) ([1]; Cohort 2 (12 mg TID)): 18.69 (12.398) ng/mL
CSF AUCtau, geometric mean (geometric CV %) ([1]; Cohort 3 (12 mg BID)): 157.9 (34.0) h*ng/mL
CSF Cavg, geometric mean (geometric CV %) ([1]; Cohort 3 (12 mg BID)): 13.76 (4.0021) ng/mL
CSF Cmax, geometric mean (geometric CV %) ([1]; Cohort 3 (12 mg BID)): 21.34 (33.5) ng/mL
CSF Ctrough, geometric mean (geometric CV %) ([1]; Cohort 3 (12 mg BID)): 7.027 (3.2364) ng/mL
CSF AUCtau, geometric mean (geometric CV %) ([1]; Cohort 4A (15 mg BID)): 171.2 (25.4) h*ng/mL
CSF Cavg, geometric mean (geometric CV %) ([1]; Cohort 4A (15 mg BID)): 14.63 (3.7448) ng/mL
CSF Cmax, geometric mean (geometric CV %) ([1]; Cohort 4A (15 mg BID)): 24.27 (32.3) ng/mL
CSF Ctrough, geometric mean (geometric CV %) ([1]; Cohort 4A (15 mg BID)): 6.512 (1.3508) ng/mL
CSF AUCtau, geometric mean (geometric CV %) ([1]; Cohort 4B (18 mg BID)): 202.5 (30.1) h*ng/mL
CSF Cavg, geometric mean (geometric CV %) ([1]; Cohort 4B (18 mg BID)): 17.51 (5.7327) ng/mL
CSF Cmax, geometric mean (geometric CV %) ([1]; Cohort 4B (18 mg BID)): 30.05 (20.9) ng/mL
CSF Ctrough, geometric mean (geometric CV %) ([1]; Cohort 4B (18 mg BID)): 7.700 (3.5802) ng/mL
safety and tolerability (CYP3A4, CYP2D6, P-gp; alone or in combination with other probe substrates): safe and generally well-tolerated
substrate for CYP3A4, CYP2D6 or P-gp (CYP3A4, CYP2D6, P-gp; lack of effect of quinidine on exposure): not a substrate for CYP3A4, CYP2D6, or P-gp
